Reference: US7884136B2, “Modified-release formulations of a bupropion salt” (Biovail Laboratories International S.R.L., priority 2005, dated 2011)

Assay: Shelf life stability program of bupropion HBr, 25° C./60% RH, 3 and 6 months, HPLC
Type: physicochemical
Conditions: 25° C./RH 60%; for Chromatographic purity B) (HPLC): 4) 2-N-(tert-Butyl)-aminopropiophenone / Chromatographic purity B) (HPLC): 5) single unknown impurity (each): LOQ 0.02%, LOD 0.002%; for Chromatographic purity A) (HPLC): 1) 3′-Chloropropiophenone / Chromatographic purity A) (HPLC): 3) 3′-Chlorobenzoic acid / Chromatographic purity A) (HPLC): 2) 3′-Chloro-2-bromopropiophenone: LOQ 0.05%; for Chromatographic purity A) (HPLC): 1) 3′-Chloropropiophenone / Chromatographic purity A) (HPLC): 3) 3′-Chlorobenzoic acid: LOD 0.01%; for Chromatographic purity A) (HPLC): 2) 3′-Chloro-2-bromopropiophenone: LOD 0.04%; for Description: specification white or almost white crystalline powder; for Assay (HPLC): on d.b.; for Chromatographic purity B) (HPLC): 6) total unknown impurities: sum of all impurity peak areas
Description: The stability of bupropion HBr was studied over a longer term under conditions meant to approximate standard storage or shelf conditions. Samples were prepared in closed containers and subjected to long-term storage at 25° C.+2° C. and 60%+5% RH in a stability chamber. The samples were analyzed by HPLC prior to being placed in the stability chamber (time 0) and after 3 months and 6 months. The amounts of the main degradation products present at time 0 were compared with the amounts present at 3 months and 6 months. As shown in Table 77-79 three different batches of bupropion HBr were tested. As in Example 10 each sample was tested under two HPLC assay conditions to identify 6 impurities or groups of impurities as described in Example 10.

For `Br.CC(NC(C)(C)C)C(=O)c1cccc(Cl)c1` (stereo not shown) [Bupropion•HBr D00894], the “Chromatographic purity (HPLC: A + B) Total impurities” value (3 months) was 0.1%, the “Water content (K.F.)” value (3 months) was 0.05% and the “Chromatographic purity B) (HPLC): 4) 2-N-(tert-Butyl)-aminopropiophenone” value (3 months) was 4) 0.03%. The “Chromatographic purity B) (HPLC): 5) single unknown impurity (each)” value (3 months) was 5) 0.04%, the “Chromatographic purity A) (HPLC): 1) 3′-Chloropropiophenone” value (3 months) was 1) n.q and the “Chromatographic purity A) (HPLC): 3) 3′-Chlorobenzoic acid” value (3 months) was 3) n.q. For the same molecule, the “Chromatographic purity A) (HPLC): 2) 3′-Chloro-2-bromopropiophenone” value (3 months) was 2) n.d, the Description (3 months) was “conform” and the “Chromatographic purity (HPLC: A + B) Total impurities” value (6 months) was 0.1%. The “Water content (K.F.)” value (6 months) was 0.06%, the “Chromatographic purity B) (HPLC): 4) 2-N-(tert-Butyl)-aminopropiophenone” value (6 months) was 4) 0.05% and the “Chromatographic purity B) (HPLC): 5) single unknown impurity (each)” value (6 months) was 5) n.q. For the same molecule, the “Chromatographic purity A) (HPLC): 1) 3′-Chloropropiophenone” value (6 months) was 1) 0.05%, the “Chromatographic purity A) (HPLC): 3) 3′-Chlorobenzoic acid” value (6 months) was 3) n.q and the “Chromatographic purity A) (HPLC): 2) 3′-Chloro-2-bromopropiophenone” value (6 months) was 2) n.d. The “Assay (HPLC)” value (6 months) was 100.2%, the Description (6 months) was “conform” and the “Chromatographic purity (HPLC: A + B) Total impurities” value (9 months) was “n.q”. The “Water content (K.F.)” value (9 months) was 0.05%, the “Chromatographic purity B) (HPLC): 4) 2-N-(tert-Butyl)-aminopropiophenone” value (9 months) was 4) n.d and the “Chromatographic purity B) (HPLC): 5) single unknown impurity (each)” value (9 months) was 5) n.q. The “Chromatographic purity A) (HPLC): 1) 3′-Chloropropiophenone” value (9 months) was 1) n.q, the “Chromatographic purity A) (HPLC): 3) 3′-Chlorobenzoic acid” value (9 months) was 3) n.q and the “Chromatographic purity A) (HPLC): 2) 3′-Chloro-2-bromopropiophenone” value (9 months) was 2) n.d. For the same molecule, the Description (9 months) was “conform”, the “Chromatographic purity B) (HPLC): 6) total unknown impurities” value (9 months) was 6) n.q and the “Chromatographic purity (HPLC: A + B) Total impurities” value (12 months) was 0.2%. For the same molecule, the “Water content (K.F.)” value (12 months) was 0.05%, the “Chromatographic purity B) (HPLC): 4) 2-N-(tert-Butyl)-aminopropiophenone” value (12 months) was 4) 0.05% and the “Chromatographic purity B) (HPLC): 5) single unknown impurity (each)” value (12 months) was 5) 0.05%. For the same molecule, the “Chromatographic purity A) (HPLC): 1) 3′-Chloropropiophenone” value (12 months) was 1) n.d, the “Chromatographic purity A) (HPLC): 3) 3′-Chlorobenzoic acid” value (12 months) was 3) 0.05% and the “Chromatographic purity A) (HPLC): 2) 3′-Chloro-2-bromopropiophenone” value (12 months) was 2) n.d. The “Assay (HPLC)” value (12 months) was 99.6%, the Description (12 months) was “conform” and the “Chromatographic purity B) (HPLC): 6) total unknown impurities” value (12 months) was 6) 0.07%. The “Chromatographic purity (HPLC: A + B) Total impurities” value (time 0) was 0.1%, the “Water content (K.F.)” value (time 0) was 0.05% and the “Chromatographic purity B) (HPLC): 4) 2-N-(tert-Butyl)-aminopropiophenone” value (time 0) was 4) 0.04%. For the same molecule, the “Chromatographic purity B) (HPLC): 5) single unknown impurity (each)” value (time 0) was 5) 0.04%, the “Chromatographic purity A) (HPLC): 1) 3′-Chloropropiophenone” value (time 0) was 1) n.d and the “Chromatographic purity A) (HPLC): 3) 3′-Chlorobenzoic acid” value (time 0) was 3) n.q. The “Chromatographic purity A) (HPLC): 2) 3′-Chloro-2-bromopropiophenone” value (time 0) was 2) n.d, the “Assay (HPLC)” value (time 0) was 99.6% and the Description (time 0) was “conform”.

In the case of `Br.CC(NC(C)(C)C)C(=O)c1cccc(Cl)c1` (stereo not shown) [Bupropion•HBr D00895], the “Chromatographic purity (HPLC: A + B) Total impurities” value (3 months) is reported as 0.1%, the “Water content (K.F.)” value (3 months) is reported as 0.04% and the “Chromatographic purity B) (HPLC): 4) 2-N-(tert-Butyl)-aminopropiophenone” value (3 months) is reported as 4) 0.03%. For the same molecule, the “Chromatographic purity B) (HPLC): 5) single unknown impurity (each)” value (3 months) was 5) 0.04%, the “Chromatographic purity A) (HPLC): 1) 3′-Chloropropiophenone” value (3 months) was 1) n.q and the “Chromatographic purity A) (HPLC): 3) 3′-Chlorobenzoic acid” value (3 months) was 3) n.q. For the same molecule, the “Chromatographic purity A) (HPLC): 2) 3′-Chloro-2-bromopropiophenone” value (3 months) was 2) n.d, the Description (3 months) was “conform” and the “Chromatographic purity (HPLC: A + B) Total impurities” value (6 months) was 0.1%. The “Water content (K.F.)” value (6 months) was 0.05%, the “Chromatographic purity B) (HPLC): 4) 2-N-(tert-Butyl)-aminopropiophenone” value (6 months) was 4) 0.05% and the “Chromatographic purity B) (HPLC): 5) single unknown impurity (each)” value (6 months) was 5) n.q. The “Chromatographic purity A) (HPLC): 1) 3′-Chloropropiophenone” value (6 months) was 1) 0.05%, the “Chromatographic purity A) (HPLC): 3) 3′-Chlorobenzoic acid” value (6 months) was 3) n.q and the “Chromatographic purity A) (HPLC): 2) 3′-Chloro-2-bromopropiophenone” value (6 months) was 2) n.d. For the same molecule, the “Assay (HPLC)” value (6 months) was 100.1%, the Description (6 months) was “conform” and the “Chromatographic purity B) (HPLC): 6) total unknown impurities” value (6 months) was 6) 0.02%. For the same molecule, the “Chromatographic purity (HPLC: A + B) Total impurities” value (9 months) was “n.q”, the “Water content (K.F.)” value (9 months) was 0.05% and the “Chromatographic purity B) (HPLC): 4) 2-N-(tert-Butyl)-aminopropiophenone” value (9 months) was 4) n.d. The “Chromatographic purity B) (HPLC): 5) single unknown impurity (each)” value (9 months) was 5) n.q, the “Chromatographic purity A) (HPLC): 1) 3′-Chloropropiophenone” value (9 months) was 1) n.q and the “Chromatographic purity A) (HPLC): 3) 3′-Chlorobenzoic acid” value (9 months) was 3) n.q. The “Chromatographic purity A) (HPLC): 2) 3′-Chloro-2-bromopropiophenone” value (9 months) was 2) n.d, the Description (9 months) was “conform” and the “Chromatographic purity B) (HPLC): 6) total unknown impurities” value (9 months) was 6) n.q. The “Chromatographic purity (HPLC: A + B) Total impurities” value (12 months) was 0.2%, the “Water content (K.F.)” value (12 months) was 0.04% and the “Chromatographic purity B) (HPLC): 4) 2-N-(tert-Butyl)-aminopropiophenone” value (12 months) was 4) 0.05%. The “Chromatographic purity B) (HPLC): 5) single unknown impurity (each)” value (12 months) was 5) 0.07%, the “Chromatographic purity A) (HPLC): 1) 3′-Chloropropiophenone” value (12 months) was 1) n.d and the “Chromatographic purity A) (HPLC): 3) 3′-Chlorobenzoic acid” value (12 months) was 3) 0.05%. The “Chromatographic purity A) (HPLC): 2) 3′-Chloro-2-bromopropiophenone” value (12 months) was 2) n.d, the Description (12 months) was “conform” and the “Chromatographic purity B) (HPLC): 6) total unknown impurities” value (12 months) was 6) 0.07%. The “Chromatographic purity (HPLC: A + B) Total impurities” value (time 0) was 0.1%, the “Water content (K.F.)” value (time 0) was 0.04% and the “Chromatographic purity B) (HPLC): 4) 2-N-(tert-Butyl)-aminopropiophenone” value (time 0) was 4) 0.04%. For the same molecule, the “Chromatographic purity B) (HPLC): 5) single unknown impurity (each)” value (time 0) was 5) 0.04%, the “Chromatographic purity A) (HPLC): 1) 3′-Chloropropiophenone” value (time 0) was 1) n.d and the “Chromatographic purity A) (HPLC): 3) 3′-Chlorobenzoic acid” value (time 0) was 3) n.q. For the same molecule, the “Chromatographic purity A) (HPLC): 2) 3′-Chloro-2-bromopropiophenone” value (time 0) was 2) n.d, the “Assay (HPLC)” value (time 0) was 99.2% and the Description (time 0) was “conform”. For the same molecule, the “Chromatographic purity B) (HPLC): 6) total unknown impurities” value (time 0) was 6) 0.04%.
